Data as given in article PMC6954543, “A window-of-opportunity trial of the CXCR1/2 inhibitor reparixin in operable HER-2-negative breast cancer” (Breast Cancer Research : BCR, 2020).

Tests used:
[1] = system: metastatic HER-2-negative BC; set-up: method as in PMID 28539464; details: in combination with weekly paclitaxel, cited from earlier work
[2] = system: human BC cell lines and xenografts; set-up: method as in PMID 20051626; details: single agent and in combination with chemotherapy; cited from earlier work
[3] = system: ALDH+ and CD24−/CD44+ CSC; assay: CSC evaluation in core biopsy samples by flow cytometry; format: in vivo, human
Protocol: Patients underwent core biopsies at baseline (day − 14 to 0) and at the completion of therapy (day 21). Three to five ≥ 18-gage needle biopsies were taken to measure the changes in CSC populations and pathway markers. If not performed at the completion of treatment, a core biopsy was taken on the day of surgery by the same technique. A sample of the surgically resected tumor tissue was also taken.
CSC populations (CD24^−/CD44^+ and ALDH^+) were measured by flow-cytometry of single-cell suspensions obtained from tumor biopsies (Additional file 1: Supplemental Materials) by using anti-human CD44-APC (clone G44-26) and CD24-FITC (clone ML5, RUO) antibodies (BD Biosciences, Franklin Lakes, NJ), and ALDEFLUOR assay (StemCell Technologies, Inc., Vancouver, BC, Canada), respectively, as previously published.
In the absence of reference data from the literature, signal of activity was defined as a ≥ 20% reduction in CSC (defined by either the ALDH^+− or CD24^−/CD44^+ phenotype) from baseline values as measured by flow cytometry, accompanied by a consistent reduction of the same cell population by IHC. The 20% cutoff was chosen considering only 1 21-day course of reparixin could be administered before surgery. Given the exploratory nature of the study to be conducted in a curable patient population, a sample of 40 patients divided into 2 subgroups of 20 patient each (i.e., ER+ and/or PgR+ and TNBC) was deemed adequate based upon simulations using the Wilson score method to obtain a lower limit for the probability of success. For each subgroup with this sample size, the study will have 80% power to detect a signal of activity (as defined above) observed in ≥ 70% patients as statistically significant at the 0.05 significance level.
To obtain single cell suspension, samples were weighed and observed for appearance, then placed in digestion media and kept at room temperature. The specimens were then rocked for 1 hour at 185 rpm (1.5 hours for surgical specimens), then filtered through 70 µm filter. HBSS+ was added to rinse any residual cells from filter, and the specimens were centrifuged 350xg for 5 minutes at 4 °C. For RBC lysis, cells were resuspended in sterile cell culture grade water, and after 20 seconds, 10XPBS was added. The specimens were then centrifuged at 350xg for 5 minutes at 4 °C. Supernatant was removed. The rest of the specimen was then filtered with 40 µm sterile cell strainer. Cell concentration was measured using Invitrogen Countess.

[4] = Safety of oral reparixin in window-of-opportunity trial (TEAEs, ANC); format: in vivo, human
Description: In this single-arm, monotherapy trial (NCT01861054), female patients aged ≥ 18 years with HER-2-negative operable breast cancer (with a clinical diameter of ≥ 2 cm) that were not candidates for neoadjuvant therapy were recruited. The protocol was amended later to allow inclusion of patients with HER-2-negative operable breast cancer with a clinical diameter of > 1 cm, not eligible for neoadjuvant treatment. Patients needed to have previously untreated, histologically proven (per local investigator assessment) ER+ and/or PgR+ or ER−/PgR− breast cancer (i.e., triple-negative BC (TNBC)) with adequate organ function.
Patients were requested to take reparixin, an investigational orally available CXCR1/2 inhibitor, as two immediate-release 500-mg oral tablets every 6 to 8 h (every 8 h on the days of PK sampling) with food (a light meal or snack), for 21 consecutive days before surgery.
Descriptive statistics were used to summarize safety variables (i.e., adverse events, physical examination, vital signs, ECG, laboratory data, concomitant medications).

CXCR1+ cells = assay: CXCR1+ cell evaluation in core biopsy samples by flow cytometry; format: in vivo, human
Description: Patients underwent core biopsies at baseline (day − 14 to 0) and at the completion of therapy (day 21). Three to five ≥ 18-gage needle biopsies were taken to measure the changes in CSC populations and pathway markers. If not performed at the completion of treatment, a core biopsy was taken on the day of surgery by the same technique. A sample of the surgically resected tumor tissue was also taken. Additional analyses were directed to determine CXCR1 (PerCP/Cy5.5 mouse anti-human CD181 (CXCR1; BioLegend, San Diego, CA) and cell lineages using the following antibodies: APC mouse anti-human CD44 (BD Bioscience, San Jose, CA; catalog #559942), PE-Cy7 mouse anti-human CD24 (#561646), PE mouse anti-human CD2 (#555327), PE mouse anti-human CD31 (#555446), PE mouse anti-human CD3 (#555333), PE mouse anti-human CD18 (#555924), PE mouse anti-human CD16 (#555407), PE mouse anti-human CD19 (#555413), and PE mouse anti-human CD45 (#555483).

CD31 = CD31 staining of core biopsies by IHC; format: in vivo, human; details: day 21 (16/20 at baseline)
Protocol: All IHC analyses and scoring for extent (0 to 4) and intensity (0 to 3) were performed at the Houston Memorial Hermann Pathology laboratory as previously described. After antigen retrieval (Tris-Cl, pH 9.0), paraffin-embedded sections of sample tumors were incubated for 1 h at room temperature with the following antibodies: anti-human CXCR1 (rabbit polyclonal to CXCR1 - C-terminal, ab137351; Abcam, Cambridge, MA), anti-human CD31 (clone JC70A, #IS610; Dako, Glostrup, Denmark), anti-human p62 (clone SQSTM1/p62, # 5114; Cell Signaling), anti-human AKT (rabbit polyclonal to pan-AKT, # ab8805; Abcam), anti-human FAK (clone pY861, #44-626G; Invitrogen, Qiagen, Carlsbad, CA), anti-human phospho-AKT (clone Ser473 (D9E), #4060; Cell Signaling), anti-human phospho-FAK (clone Y397, #ab4803; Abcam), and anti-human LC3B (clone D11, #3868; Cell Signaling). For the evaluation of extent, the following semi-quantitative score method (0 to 4) was used: 0, no positive cells; 1, 1–25%; 2, 26–50%; 3, 51–75%; and 4, 76–100%.

In the case of `CC(C)Cc1ccc([C@@H](C)C(=O)NS(C)(=O)=O)cc1` [reparixin], the “long-lasting CR” value ([1]; 27 evaluable patients) is given as 2, the response rate ([1]; 27 evaluable patients) is given as 30% and the “gastrointestinal disorders, share of all TEAEs” value ([1]; all grade ≤ 2) is given as 39%. The “Grade 3 treatment-related TEAE, share of all reports” value [1] was 2.7%, the “metastatic spread of human BC cells and CSC (ALDH+ and CD24−/CD44+) content” value [2] was “reduced” and the “patients with decrease in ALDH+ cells not accompanied by reduction of CD24−/CD44+ cells” value [3] was 2 patients. The “patients with decrease in CD24−/CD44+ CSC not paralleled by decrease in ALDH+ CSC” value [3] was 6 patients, the “patients without ALDH+ CSC at baseline in whom ALDH+ CSCs were detected at day 21” value ([3]; core biopsy) was 5/9 and the “patients without CD24−/CD44+ CSC at baseline in whom CD24−/CD44+ CSCs were detected at day 21” value ([3]; core biopsy) was 6/6. For the same molecule, the “patients who experienced ≥ 1 TEAE related to the study drug” value ([4]; 1000 mg t.i.d. oral, 21 days) was “Ten of 20”, the “TEAEs leading to discontinuation” value ([4]; 1000 mg t.i.d. oral, 21 days, 20 patients) was “no treatment-emergent adverse events (TEAEs) leading to discontinuation” and the “delay of surgery due to study treatment” value ([4]; 20 patients) was “No patients had to delay surgery”. The serious adverse reactions ([4]; 20 patients) was “no serious adverse reactions”, the “neutropenia / decrease in absolute neutrophil count (ANC)” value ([4]; ANC at weekly intervals, 10/20 patients) was “neither neutropenia of any grade nor any sustained decrease in ANC” and the “grade of TEAEs related to the study drug” value ([4]; all related TEAEs) was no more than 2 grade. The “TEAE grade 1 fatigue” value ([4]; of 20 patients) was 8 patients, the TEAE nausea ([4]; of 20 patients) was 5 patients and the “TEAE related to study drug: fatigue” value ([4]; of 20 patients) was 4 patients. For the same molecule, the “TEAE related to study drug: flatulence” value ([4]; of 20 patients) was 2 patients, the “TEAE related to study drug: headache” value ([4]; of 20 patients) was 2 patients and the “TEAE related to study drug: nausea” value ([4]; of 20 patients) was 2 patients. For the same molecule, the “serious TEAE” value ([4]; of 20 patients, unrelated to the study drug) was 1 patient, the “patients with CXCR1+ tumor cells decreased at day 21” value (CXCR1+ cells) was 7/13 and the “patients with all viable CXCR1+ cells reduced at day 21 vs baseline” value (CXCR1+ cells) was 6/13. The “patients with parallel decrease in both CXCR1+ cell populations” value (CXCR1+ cells) was 4/13 and the “patients with value of 0 for CD31, extent and intensity” value (CD31) was 11/15.
